How the values were obtained:
[1] = target: Mcl-1 protein (UniProtKB Q07820) (Homo sapiens (Human), UniProt Q07820); assay: Inhibition of Mcl-1 by the fluorescence polarisation assay (Example A, Method A); assay type: binding; details: fluorescence polarization assay
Procedure, shortened: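 Protein (5 nM) and fluorescein-tagged peptide tracer (1 nM) incubated with 11-point compound series for 2 h at room temperature in HEPES/NaCl/Tween 20 buffer, pH 7.4, 5% DMSO. Displacement read as decrease in polarisation; IC50 fitted by 4-parameter logistic, converted to Ki (cKi or eKi).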

[2] = tested on: H929 multiple myeloma tumor line; assay: In vitro cytotoxicity, MTT assay (Example B, Method A); assay type: cell-based; details: Homo sapiens, NCI-H929, 48 h, H929 cells, 48 hours exposure, read-out: C50
Description: The cytotoxicity studies were carried out on the H929 multiple myeloma tumor line.
The cells are distributed onto microplates and exposed to the test compounds for 48 hours. The cell viability is then quantified by a colorimetric assay, the Microculture Tetrazolium Assay (Carmichael et al, Cancer Res. 1987, 47, 939-942).
The results are expressed in C50 which means concentration corresponding to […] of effect/inhibition.

Chain of Mcl-1 protein (Q07820 whole entry): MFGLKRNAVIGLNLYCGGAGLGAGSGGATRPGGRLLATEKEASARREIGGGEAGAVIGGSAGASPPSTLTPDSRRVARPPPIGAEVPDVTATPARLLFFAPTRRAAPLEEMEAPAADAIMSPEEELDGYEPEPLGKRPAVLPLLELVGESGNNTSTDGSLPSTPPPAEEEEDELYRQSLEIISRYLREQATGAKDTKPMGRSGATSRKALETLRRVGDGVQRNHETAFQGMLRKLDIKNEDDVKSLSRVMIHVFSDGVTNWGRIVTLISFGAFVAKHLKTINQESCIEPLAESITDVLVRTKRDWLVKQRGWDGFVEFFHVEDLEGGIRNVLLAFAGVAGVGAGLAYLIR

Row | Ki [1] [µM] | SMILES | IC50 [2] [µM]
1 | 0.107 | O=C(O)[C@]1(Nc2cccc(Cl)c2)CC[C@]2(CC1)C(CCCOc1ccnc3ccsc13)=Cc1ccccc12 [Example 442, (1r,4r)-4-(3-chloroanilino)-2′-{3-[(thieno[3,2-b]pyridin-7-yl)oxy]propyl}spiro[cyclohexane-1,1′-indene]-4-carboxylic acid] | 5.79
2 | 0.648 | O=C1c2ccccc2[C@]2(CC[C@@](Nc3cccc(Cl)c3)(C(=O)O)CC2)N1CCCOc1ccccc1 [Example 34, (1s,4s)-4-(3-chloroanilino)-3′-oxo-2′-(3-phenoxypropyl)-2′,3′-dihydrospiro[cyclohexane-1,1′-isoindole]-4-carboxylic acid] | 30
3 | 0.816 | CCC1Cc2ccccc2C12CCC(Nc1cccc(Br)c1)(C(=O)O)CC2 (centres unmarked) [Example 147, 4-(3-bromoanilino)-2′-ethyl-2′,3′-dihydrospiro[cyclohexane-1,1′-indene]-4-carboxylic acid] | 30
4 | 0.155 | O=C(O)[C@]1(Nc2cccc(Cl)c2)CC[C@]2(CC1)C(COCCc1ccccc1)=Cc1ccccc12 [Example 409, (1s,4s)-4-(3-chloroanilino)-2′-[(2-phenylethoxy)methyl]spiro[cyclohexane-1,1′-indene]-4-carboxylic acid] | 30
5 | 3.49 | O=C(O)[C@]1(Nc2cccc(Cl)c2)CC[C@@]2(CC1)c1ccccc1C[C@@H]2C[C@@H](COc1ccnc2ccsc12)c1ccccc1 [Example 545, (1r,2′S,4S)-4-(3-chloroanilino)-2′-{(2R)-2-phenyl-3-[(thieno[3,2-b]pyridin-7-yl)oxy]propyl}-2′,3′-dihydrospiro[cyclohexane-1,1′-indene]-4-carboxylic acid] | 8.92
6 | 0.047 | O=C(O)[C@]1(Nc2cccc(Cl)c2)CC[C@@]2(CC1)c1ccccc1C[C@@H]2CCCOc1ccnc2ccsc12 [Example 440, (1r,2′S,4S)-4-(3-chloroanilino)-2′-{3-[(thieno[3,2-b]pyridin-7-yl)oxy]propyl}-2′,3′-dihydrospiro[cyclohexane-1,1′-indene]-4-carboxylic acid] | 3.48
7 | 0.0632 | COc1ccc2c(c1)[C@]1(CC[C@@](Nc3cccc(Cl)c3)(C(=O)O)CC1)C(c1cccc(Oc3ccccc3)c1)C2 (single isomer, unassigned) [Example 378, (1r,4r)-4-(3-chloroanilino)-6′-methoxy-2′-(3-phenoxyphenyl)-2′,3′-dihydrospiro[cyclohexane-1,1′-indene]-4-carboxylic acid] | 9.24
8 | 0.0857 | O=C(O)[C@]1(Nc2cccc(Cl)c2)CC[C@@]2(CC1)c1ccccc1CC2CCCOc1ncnc2c1CCC2 (mixture of isomers) [Example 459, (1r,4r)-4-(3-chloroanilino)-2′-{3-[(6,7-dihydro-5H-cyclopenta[d]pyrimidin-4-yl)oxy]propyl}-2′,3′-dihydrospiro[cyclohexane-1,1′-indene]-4-carboxylic acid] | 6.96
9 | 0.995 | O=C(O)[C@]1(Nc2cccc(Cl)c2)CC[C@@]2(CC1)c1ccccc1C[C@@H]2C[C@@H](COc1cccnc1)c1ccccc1 [Example 548, (1r,2′S,4S)-4-(3-chloroanilino)-2′-{(2R)-2-phenyl-3-[(pyridin-3-yl)oxy]propyl}-2′,3′-dihydrospiro[cyclohexane-1,1′-indene]-4-carboxylic acid] | 30
10 | 0.759 | Cc1c[nH]c2cccc(OCCC[C@H]3Cc4ccccc4[C@]34CC[C@@](Nc3cccc(Cl)c3)(C(=O)O)CC4)c12 [Example 484, (1r,2′S,4S)-4-(3-chloroanilino)-2′-{3-[(3-methyl-1H-indol-4-yl)oxy]propyl}-2′,3′-dihydrospiro[cyclohexane-1,1′-indene]-4-carboxylic acid] | 9.64
11 | 0.0773 | C[C@@H](COc1ccnc2occc12)C[C@H]1Cc2ccccc2[C@]12CC[C@@](Nc1cccc(Cl)c1)(C(=O)O)CC2 [Example 606, (1r,2′S,4S)-4-(3-chloroanilino)-2′-{(2R)-3-[(furo[2,3-b]pyridin-4-yl)oxy]-2-methylpropyl}-2′,3′-dihydrospiro[cyclohexane-1,1′-indene]-4-carboxylic acid] | 2.14
12 | 0.08 | Cc1cnccc1OCCC[C@H]1Cc2ccccc2[C@]12CC[C@@](Nc1cccc(Cl)c1)(C(=O)O)CC2 [Example 449, (1r,2′S,4S)-4-(3-chloroanilino)-2′-{3-[(3-methylpyridin-4-yl)oxy]propyl}-2′,3′-dihydrospiro[cyclohexane-1,1′-indene]-4-carboxylic acid] | 9.27
13 | 5.64 | O=C(O)[C@]1(Nc2cccc(Cl)c2)CC[C@@]2(CC1)c1ccccc1C[C@H]2C[C@@H](COc1ccncc1)c1ccccc1 [Example 553, (1r,2′R,4R)-4-(3-chloroanilino)-2′-{(2R)-2-phenyl-3-[(pyridin-4-yl)oxy]propyl}-2′,3′-dihydrospiro[cyclohexane-1,1′-indene]-4-carboxylic acid] | 17.5
14 | 0.934 | O=C(O)C1(Nc2cccc(Br)c2)CCC2(CCc3ccccc32)CC1 (centres unmarked) [Example 57, 4-(3-bromoanilino)-2′,3′-dihydrospiro[cyclohexane-1,1′-indene]-4-carboxylic acid] | 30
15 | 0.0192 | C[C@@H](COc1ccnc2ccsc12)C[C@@H]1Cc2ccccc2[C@]12CC[C@@](Nc1cccc(Cl)c1)(C(=O)O)CC2 [Example 590, (1r,2′R,4R)-4-(3-chloroanilino)-2′-{(2R)-2-methyl-3-[(thieno[3,2-b]pyridin-7-yl)oxy]propyl}-2′,3′-dihydrospiro[cyclohexane-1,1′-indene]-4-carboxylic acid] | 1.17
16 | 0.0203 | C[C@@H](COc1ccnc2c1CC(C)(C)CC2)C[C@H]1Cc2ccccc2[C@]12CC[C@@](Nc1cccc(Cl)c1)(C(=O)O)CC2 [Example 652, (1r,2′S,4S)-4-(3-chloroanilino)-2′-{(2R)-3-[(6,6-dimethyl-5,6,7,8-tetrahydroquinolin-4-yl)oxy]-2-methylpropyl}-2′,3′-dihydrospiro[cyclohexane-1,1′-indene]-4-carboxylic acid] | 4.71
17 | 0.174 | O=C(O)[C@]1(Nc2cccc(Cl)c2)CC[C@]2(CC1)C(c1cccc(OCc3ccncc3)c1)=Cc1ccccc12 [Example 362, (1s,4s)-4-(3-chloroanilino)-2′-{3-[(pyridin-4-yl)methoxy]phenyl}spiro[cyclohexane-1,1′-indene]-4-carboxylic acid] | 21.6
18 | 0.0558 | O=C(O)[C@]1(Nc2cccc(Cl)c2)CC[C@]2(CC1)C(C#CCOc1ccccc1)=Cc1ccccc12 [Example 172, (1s,4s)-4-(3-chloroanilino)-2′-(3-phenoxyprop-1-yn-1-yl)spiro[cyclohexane-1,1′-indene]-4-carboxylic acid] | 18.7
19 | 1.27 | O=C(O)[C@]1(Nc2cccc(Cl)c2)CC[C@@]2(CC1)c1ccccc1C[C@H]2C[C@H](COc1ccccc1)c1ccccc1 [Example 557, (1r,2′R,4R)-4-(3-chloroanilino)-2′-[(2S)-3-phenoxy-2-phenylpropyl]-2′,3′-dihydrospiro[cyclohexane-1,1′-indene]-4-carboxylic acid] | 20.1
20 | 0.0179 | CC1CCc2nccc(OC[C@H](C)C[C@H]3Cc4ccccc4[C@]34CC[C@@](Nc3cccc(Cl)c3)(C(=O)O)CC4)c2C1 (stereo partly drawn) [Example 651, (1r,2′S,4S)-4-(3-chloroanilino)-2′-{(2R)-2-methyl-3-[(6-methyl-5,6,7,8-tetrahydroquinolin-4-yl)oxy]propyl}-2′,3′-dihydrospiro[cyclohexane-1,1′-indene]-4-carboxylic acid] | 1.26
21 | 0.414 | C[C@H]1Cc2ccccc2[C@]12CC[C@@](Nc1cccc(Br)c1)(C(=O)O)CC2 [Example 145, (1r,2′S,4S)-4-(3-bromoanilino)-2′-methyl-2′,3′-dihydrospiro[cyclohexane-1,1′-indene]-4-carboxylic acid] | 30
22 | 0.033 | C[C@@H]1CCc2ncnc(OCCCC3Cc4ccccc4[C@]34CC[C@@](Nc3cccc(Cl)c3)(C(=O)O)CC4)c21 (stereo partly drawn) [Example 472, (1r,4R)-4-(3-chloroanilino)-2′-(3-{[(5R)-5-methyl-6,7-dihydro-5H-cyclopenta[d]pyrimidin-4-yl]oxy}propyl)-2′,3′-dihydrospiro[cyclohexane-1,1′-indene]-4-carboxylic acid] | 5.04
23 | 0.0242 | Cc1csc2nccc(OC[C@H](C)C[C@H]3Cc4ccccc4[C@]34CC[C@@](Nc3cccc(Cl)c3)(C(=O)O)CC4)c12 [Example 605, (1r,2′S,4S)-4-(3-chloroanilino)-2′-{(2R)-2-methyl-3-[(3-methylthieno[2,3-b]pyridin-4-yl)oxy]propyl}-2′,3′-dihydrospiro[cyclohexane-1,1′-indene]-4-carboxylic acid] | 0.906
24 | 0.247 | O=C(O)[C@]1(Nc2cccc(Cl)c2)CC[C@@]2(CC1)c1ccccc1C[C@H]2c1cc2ccccc2o1 [Example 337, (1r,2′R,4R)-2′-(1-benzofuran-2-yl)-4-(3-chloroanilino)-2′,3′-dihydrospiro[cyclohexane-1,1′-indene]-4-carboxylic acid] | 30
25 | 0.0868 | C[C@@H](COc1ccnc2c1CCCCC2O)C[C@H]1Cc2ccccc2[C@]12CC[C@@](Nc1cccc(Cl)c1)(C(=O)O)CC2 (stereo partly drawn) [Example 634, (1r,2′S,4S)-4-(3-chloroanilino)-2′-{(2R)-3-[(9-hydroxy-6,7,8,9-tetrahydro-5H-cyclohepta[b]pyridin-4-yl)oxy]-2-methylpropyl}-2′,3′-dihydrospiro[cyclohexane-1,1′-indene]-4-carboxylic acid] | 4.23
